Data on five molecules can be found in patent publication US5614370A, “Assay to identify human C5a antagonists and agonists” (Merck & Co., Inc., priority 1994, dated 1997).

Like-named read-outs stand apart in the source and are kept apart here. Non-standard residues stand in square brackets, D forms with d. Residues, ends and D or L forms follow the SMILES beside them. NMeF = CN[C@@H](Cc1ccccc1)C(=O)O; Cha = N[C@@H](CC1CCCCC1)C(=O)O; dCha = N[C@H](CC1CCCCC1)C(=O)O

Test [1] addresses T1, C5a receptor (Homo sapiens, UniProt P21730).
T1 construct: followed by a 20 μL aliquot of neutrophil membrane; endogenous in cells
T1 sequence (P21730 1-350): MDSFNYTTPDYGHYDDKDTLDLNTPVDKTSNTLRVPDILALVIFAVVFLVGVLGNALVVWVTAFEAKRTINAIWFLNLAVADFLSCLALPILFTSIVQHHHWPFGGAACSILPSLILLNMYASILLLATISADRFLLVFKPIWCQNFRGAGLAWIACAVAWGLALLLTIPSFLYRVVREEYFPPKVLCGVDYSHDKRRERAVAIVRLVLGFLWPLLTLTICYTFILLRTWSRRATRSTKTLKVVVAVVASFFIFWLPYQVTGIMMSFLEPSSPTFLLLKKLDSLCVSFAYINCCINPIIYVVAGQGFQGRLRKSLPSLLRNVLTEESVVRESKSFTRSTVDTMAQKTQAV
The test is described as follows: Competition binding against 125I-labeled intact C5a on human neutrophil (PMN) membranes. Conditions: Table II; human neutrophil membranes, competition against 125I-C5a; read-out: Binding IC50. An excerpt: The affinity of these peptides is shown, for example, by radiolabeling intact C5a, and using the unlabeled peptide to compete the labeled C5a from C5a receptor binding sites on cellular membranes. Preparations of polymorphonuclear leukocytes (PMN's) are known to express the C5a receptor, (inhibition of the chemotactic response to C5a of this type of cell is one desirable utility for compounds identified by the instant assay). One method for preparing these membranes is described by Rollins, T. E. et al., [J. Biol. Chem. 264:520-526 (1988); see also U.S. Pat. No. 5,177,190, herein incorporated by reference as a method for isolating and purifying C5a receptor]. Briefly, this involves isolating PMN's in large quantity, disrupting these cells and obtaining the membrane fraction by centrifugation. Protein assay of the membrane preparation allows for standardization of the amount of protein added in any set of membrane binding experiments.
In FIG. 1, unlabeled C013 is used to compete with ^125 I-labeled C5a. […] In FIG. 2, the C013 is ^125 I labeled. Unlabeled C5a and unlabeled C013 are each used to compete the labeled C013 from C5a binding sites on the membranes. […] In FIG. 3a, ^125 I-C5a is competed from its binding site by unlabeled C064 and unlabeled, natural C5a (as opposed to recombinant C5a, which, however, may also obviously may be used for these purposes). […] In FIG. 3b, the inverse experiment is shown, wherein ^125 I-C064 is displaced by unlabeled C064 and unlabeled nC5a.
Hexapeptides within this class differing only at position X have similar affinities for the C5a receptor. As measured in competition binding experiments against ^125 I-C5a on human neutrophil membranes their IC50 's varied by only a factor of 3, from 25 to 80 nM (Table II):
^2 Binding experiments were carried out with human neutrophil
Binding is initiated by an addition of 20 μL of PMN membrane (typically 0.5 μg of protein) to each tube. After incubation for 90 min. at room temperature 2 ml of 0.05 M HEPES, pH 7.2, containing 0.5% BSA are added to the tube, the contents vortexed and filtered over a Whatman GF/C filter which has been soaked in 0.3% polyethylenimine. An additional 2 ml of buffer are added to the tube and used to wash the filter. All of the test samples are dissolved in DMSO, another water miscible organic solvent, or in an aqueous solvent. Non-specific background was determined by inclusion of a 100-fold excess of unlabeled C5a.
The percent inhibition is calculated according to the following formula: [formula]
Iodination of C5a was carded out with the use of chloramine T. (Rollins, T.E., and Springer, M.S. (1985) J. Biol. Chem. 260, 7157-7160). […] Concentrations of C5a were determined by amino acid analysis and by RIA (Amersham Corp.). Membranes were prepared from human PMN as described by Rollins, T.E., Sciliano, S and Springer, M.S., J. Biol Chem 264 520-526 (1988).

The subject of test [2] is human neutrophils. The test is described as follows: Degranulation, myeloperoxidase (MPO) release from human neutrophils (agonism). The class given is cell-based. Conditions: FIG. 5A. The procedure: (§1) FIG. 5A and 5B. Degranulation and Ca^2+ responses to the hexapeptides. […] The ED50 's for the degranulation are: C5a, 0.5 nM; C028, 0.2 μM; C026, 1 μM. C5a, maximally, released 57% of the total cellular content of MPO. The ability of these molecules to elicite a Ca^2+ -flux is shown in B. The concentrations used for C028 (10 μM), C026 (10 μM), C061 (100 μM) are those which produce a maximal flux. A saturating concentration was also used for C5a (1 nM).
(§2) This assay was performed on human neutrophils as previously reported and it is a measure of C5a or peptide induced exocytosis (Rollins, T. E. and Springer, M. S. (1985) J. Biol. Chem. 260, 7157-7160).
The functional properties of two of the peptides, C026, and C028, were originally described by Mollison et. al (Mollison, K. W., Krause, R. A., Fey, T. A., Miller, L., Wiedeman, P. e., Kawai, M., Lane, B., Luly, J. R. and Carter, G. W. (1992) FASEB J. 6, A2058). […] We have reinvestigated the degranulating activities of these peptides as measured by the release of myeloperoxidase (MPO) from human neutrophils. […] The EC50 /IC50 (degranulation/binding) for C028 is 8, the same as that measured for C5a (Table II, FIG. 5A). […] However, the difference in activity between C026 and C028 is significant and reproducible. Since the structural difference between the two is the substitution of an aromatic for an aliphatic residue (Phe for Cha) we chose to make additional changes at position 5 which further increased aromaticity. […] To further examine whether the differences in activity between the peptides reflects the increased aromaticity we synthesized a molecule with Leu, an aliphatic amino acid, at position 5 (C068, Table II).

In test [3] the test system is human neutrophils. The test is described as follows: Ligand induced Ca2+ flux (Indo-1 fluorescence). Format: cell-based. As to conditions: maximal effects, peptide 10-100 μM vs 1 nM C5a, FIG. 5B. The procedure:
as §1
(§3) Ligand induced Ca^2+ fluxes were measured by following the change in Indo-1 induced fluorescence on a FACS analyzer as previously described (Van Riper, G., Siciliano, S. J., Fischer, P. A., Meurer, R., Springer, M. S. and Rosen, H. (1993) J. Exp. Med. 177, 851-856.).
FIG. 5B compares the maximal effects of each peptide (10-100 μM) with the response induced by C5a (1 nM).

Test [4] addresses T1, C5a receptor. In words: Agonist activity over all C5a induced responses (chemotaxis, MPO release, calcium flux, GTPase activity, GTPγ-S binding). The class given is cell-based. As to conditions: C089 tested up to and including 100 μM. The procedure: The EC50 measures the concentration of compound at which a 50% maximal stimulation of a given biological response induced by C5a is achieved (chemotaxis, MPO release, calcium flux, GTPase activity or GTPγ-S binding), and the IC50 is the concentration at which 50% maximal inhibition of C5a binding is achieved.
as §2, §3
This assay is a modification of the procedure described by Sims et. al. (Sims, T. J., Geissler, F. T. and Page, R. C. (1985) J. lmmunol. Meth. 78, 279-291 ). Chemotaxis was assayed in a 48 well Neuro Probe chamber (Neuro Probe, Bethesda, MD) using ^51 Cr-labelled cells. […] After preforming a gradient for 30 minutes at 37° C., 2×10^5 labelled cells were added to the upper chamber and allowed to migrate at 37° C. for one hour. The upper two polycarbonate filters were then discarded and the formed wells cut from the nitrocellulose membrane. The radioactivity present in these filters is a measure of the number of cells that migrated through both polycarbonate filters.
The method of Kupper et al. (Kupper, R. W., Dewald, B., Jakobs, K. H., Baggiolini, M. and Gierschik, P. (1992) Biochem. J. 282, 429-434) was adapted for use in microtiter plates. Neutrophil membranes were suspended in 50 mM triethanolamine-HCl, 5 mM MES, pH 7.3, containing 1 mM EDTA, 5 mM MgCl2, 143 mM NaCl, 0.16 % BSA, 1 mM ouabain, 1 mM AMP-PNP, 0.5 mM ATP, 2.5 U/mL creatine phosphokinase,. 10 mM creatine phosphate, 0.1 mM PMSF and 10 ng/mL each of leupeptin, aprotinin and chymostatin. 50 μL of membranes containing 1-5 μg protein were added to 50 μL of the same buffer containing the test agent and 0.25 μM [γ-^32 P]-GTP (2,000 cpm/pmol) in the wells of a U-shaped microtiter plate. After incubation for 15-30 rain at 29° C., 100 μL of a 10% (w/v) charcoal suspension in 100 mM H3 PO4 was added and plates were centrifuged at 2000 rpm for 5 min. 100 μL of the supernatant was transferred to an Optiplate microtiter plate and 100 μL of Microscint-40 scintillation cocktail was added. Plates were counted in a Packard TopCount microtiter plate counter.

Test [5] deals with C5a receptor. Conditions: cited from earlier work.
Test [6] deals with C5a receptor. As to conditions: literature; cited from earlier work.
Test [7] deals with T1, C5a receptor. Format: binding. As to conditions: 293 cells present, FIG. 4A; PMN membranes. The text has this:
FIGS. 4A, 4B and 4C. (A) Competition binding curve using ^125 I-labeled intact C5a and unlabeled C013 peptide in the presence and absence of protease secreting cells.
(B) Competition binding curve using ^125 I-labeled intact C5a and unlabeled C028 peptide in the presence and absence of protease secreting cells.
(C) Competition binding curve using ^125 I-labeled intact C5a and unlabeled C013 and C028 peptides in the presence and absence of protease secreting cells in the presence or absence of protease inhibitor.
We therefore attempted, and succeeded, to improve on this radioligand by identifying a compound with lower non-specific binding, and higher binding affinity. We developed the compound C013, ^125 I-Tyr Phe Lys Ala Cha Gly Leu dPhe Arg, SEQ.ID:2:, which had about 30-fold the binding affinity of ^125 I-C009.

As for `CN[C@@H](Cc1ccccc1)C(=O)N[C@@H](CCCCN)C(=O)N1CCC[C@H]1C(=O)N[C@H](CC1CCCCC1)C(=O)N[C@@H](CC(C)C)C(=O)N[C@H](CCCNC(=N)N)C(=O)O` [C068] (H-[NMeF]KP[dCha]L[dR]-OH), the IC50 on C5a receptor [1] was 60 nM. The “degranulating activity in words” value with human neutrophils [2] was “full agonist, as measured both by maximal release and ED50 /IC50 ratio”. Moreover, in the test with human neutrophils [3], the “Ca2+ response in words” value is “full agonist in this assay”. Moreover, the “agonist activity in words, all responses” value at C5a receptor [4] is reported as “almost complete agonists of all of these responses”.

With “natural C-terminus of C5a: synthetic peptide consisting of the C-terminal eight amino acids of C5a (HKDMQLGR; C5a anaphylatoxin; UniProt P01031 744-751, looked up, fragment) [reference compound]”, the Ki at C5a receptor [5] (C-terminal eight residues of C5a, read-out: Ki, inhibition of C5a binding) is 300000 nM. The “agonist properties in words” value with C5a receptor [6] was “has agonist properties”.

On to `CC(C)C[C@H](NC(=O)CNC(=O)[C@H](CC1CCCCC1)NC(=O)[C@H](C)NC(=O)[C@H](CCCCN)NC(=O)[C@@H](N)Cc1ccccc1)C(=O)N[C@H](Cc1ccccc1)C(=O)N[C@@H](CCCNC(=N)N)C(=O)O` [C013a] (H-FKA[Cha]GL[dF]R-OH), for which the “loss of potency in displacement of 125I-C5a in the presence of 293 cells” value at C5a receptor [7] is “about 100 fold”.

As to “C-terminal C5a octapeptide: C-terminal C5a octapeptide which retained receptor binding activity (Kawai et al.) (HKDMQLGR; C5a anaphylatoxin; UniProt P01031 744-751, looked up, fragment)”, the “C5a binding in words” value in the test with C5a receptor [5] (literature) was “retained receptor binding activity”.

B1: Phe for His67 substituted C5a peptide: Phe for His67 substituted C5a peptide (Mollison et al.) (peptide, UniProt P01031 678-751, looked up, variant H67F)
C5a anaphylatoxin: TLQKKIEEIAAKYKHSVVKKCCYDGACVNNDETCEQRAARISLGPRCIKAFTECCVVASQLRANISFKDMQLGR
modifications: C5a anaphylatoxin
Regarding B1, the Ki at C5a receptor [5] (literature, read-out: Ki for C5a binding) was 260 nM.
